We go through two compounds from paper PMC11861906, “Structural basis for lipid-mediated activation of G protein-coupled receptor GPR55” (Nature Communications, 2025).

The assay addresses GPR55 mutant G152W (Gα13) (Homo sapiens, UniProt Q9Y2T6, G152W). As to the kind of experiment: BRET² G protein dissociation assay, GPR55 G152W with Gα13. It is filed as cell-based. An excerpt: To validate the functionality of the GPR55 cryo-EM construct, we conducted bioluminescence resonance energy transfer 2 (BRET²)-based G protein dissociation assays[46],[47] using an engineered heterotrimeric G13 protein. The N-terminal GFP fusion of the receptor was additionally modified with a G67A mutation to disrupt fluorescence properties. We employed human embryonic kidney (HEK) cells overexpressing wt or mutant GPR55 together with Gβ3, Gγ9-GFP, and Gα13 tagged with Renilla luciferase 8 (Rluc8).
G protein dissociation assays were performed according to the original protocols of the TRUPATH BRET² assay[47],[87] but with subtle modifications as previously described[61],[88],[89]. All reagents and cells were obtained from Thermo Fisher Scientific unless indicated otherwise. The coding sequences for the G protein biosensors[47] (Gα12-Rluc8, Gα13-Rluc8, wt Gβ3, and Gγ9-GFP), the wt GPR55, the construct used for cryo-EM (with GFP bearing a G67A mutation to disrupt fluorescence properties[48] for BRET² assays), GPR55 binding pocket mutants (G152^4.56F, G152^4.56W, N171^ECL2Q, N171^ECL2A, T176^5.33A, R253^6.62A), and the wt TBXA2R were codon-optimized for Homo sapiens, gene-synthesized, and sub-cloned into pcDNA^TM3.1(+) between NheI and HindIII restriction sites by GeneArt (Thermo Fisher Scientific). […] Freshly grown cells were washed with Dulbecco’s Balanced Salt Solution (DPBS, cat. #14200075) and detached using trypsin-ethylenediaminetetraacetic acid (trypsin-EDTA) (cat. #25300-062). Then, the cells were reconstituted to 500,000 cells per mL with fresh medium, and 1,000,000 cells were seeded into each well of a 6-well plate. After 3 h incubation at 37 °C and 5% CO2, adherent cells were transfected with 600 ng DNA (1:1:1:1 ratio of plasmid DNA for GPR55, wt Gβ3, Gγ9-GFP, and Gα12-Rluc8 or Gα13-Rluc8). Plasmid DNA was mixed with 1.5 µL Lipofectamine^TM 2000 (cat. #11668027) in Opti-MEM^TM medium (cat. #31985062) and incubated for 20 min. Then, the mixture was added to each well of the 6-well plate following 24 h incubation at 37 °C and 5% CO2. Transfected cells were washed with DPBS, detached using EDTA (Versene, cat. #15040066), and reconstituted into fresh medium at 500,000 cells mL^−1. From this suspension, 50,000 cells were seeded into each well of a white-bottom 96-well plate (Nunc^TM MicroWell^TM 96 wells, cat. #136101) following overnight incubation at 37 °C and 5% CO2. Then, the adherent cells were washed with assay medium [Hank’s balanced salt solution (HBSS, cat. #14065056) plus 20 mM HEPES pH 7.4 (cat. #15630056)] and finally reconstituted into 50 µL of the same medium. […] Methoxy e-Coelenterazine was used as luciferase substrate (Prolume Purple, NanoLight Technology, cat. #369), reconstituted at 1 mM in methanol and diluted to 37.5 µM with assay buffer (7.5 µM final assay concentration). The assay was started by the addition of 20 µL luciferase substrate to each well of the assay plate using a Multidrop^TM Combi reagent dispenser (Thermo Fisher Scientific), followed by 5 min incubation at room temperature. Then, 30 µL of agonist dilutions or DMSO control was added (final DMSO concentration 1.5%), followed by an additional 5 min incubation at room temperature. BRET² measurements were performed with a PHERAstar® FSX microplate reader (BMG LABTECH) using a BRET² filter (donor emission 370–450 nm, acceptor emission 500–530 nm) at the maximum fluorescence gain of 3600. BRET² ratios were calculated by dividing GFP emission signals from Rluc8 emission counts. Buffer-DMSO controls were subtracted from each data point to calculate ΔBRET² ratios.

One may read the EC50 as the concentration needed to bring the measured effect to its halfway point.

Structures are written as SMILES.

Sequence of GPR55 mutant G152W (Gα13) (Q9Y2T6 whole entry G152W, the tested form may be a part): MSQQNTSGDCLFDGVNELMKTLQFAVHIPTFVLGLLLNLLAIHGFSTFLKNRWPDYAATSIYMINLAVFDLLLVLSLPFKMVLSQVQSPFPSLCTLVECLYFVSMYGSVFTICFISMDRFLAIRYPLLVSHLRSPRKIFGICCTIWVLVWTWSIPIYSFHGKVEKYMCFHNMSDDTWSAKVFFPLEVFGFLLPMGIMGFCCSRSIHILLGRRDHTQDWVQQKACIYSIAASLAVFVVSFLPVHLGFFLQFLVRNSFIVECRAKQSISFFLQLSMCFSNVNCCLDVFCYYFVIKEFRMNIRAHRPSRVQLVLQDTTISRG
Sequence of GPR55 mutant G152W (Gα13) (Q14344 whole entry partner, the tested form may be a part): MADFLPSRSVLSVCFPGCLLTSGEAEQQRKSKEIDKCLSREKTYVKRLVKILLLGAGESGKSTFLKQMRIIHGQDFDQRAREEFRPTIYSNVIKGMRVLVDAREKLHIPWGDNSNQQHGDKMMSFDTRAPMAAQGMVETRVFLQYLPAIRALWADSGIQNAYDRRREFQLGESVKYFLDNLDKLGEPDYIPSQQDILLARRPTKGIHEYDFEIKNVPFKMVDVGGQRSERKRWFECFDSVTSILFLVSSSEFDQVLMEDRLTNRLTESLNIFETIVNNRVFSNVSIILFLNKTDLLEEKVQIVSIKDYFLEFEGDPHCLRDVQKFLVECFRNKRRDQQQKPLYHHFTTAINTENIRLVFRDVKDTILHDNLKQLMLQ
Sequence of GPR55 mutant G152W (Gα13) (P16520 whole entry partner, the tested form may be a part): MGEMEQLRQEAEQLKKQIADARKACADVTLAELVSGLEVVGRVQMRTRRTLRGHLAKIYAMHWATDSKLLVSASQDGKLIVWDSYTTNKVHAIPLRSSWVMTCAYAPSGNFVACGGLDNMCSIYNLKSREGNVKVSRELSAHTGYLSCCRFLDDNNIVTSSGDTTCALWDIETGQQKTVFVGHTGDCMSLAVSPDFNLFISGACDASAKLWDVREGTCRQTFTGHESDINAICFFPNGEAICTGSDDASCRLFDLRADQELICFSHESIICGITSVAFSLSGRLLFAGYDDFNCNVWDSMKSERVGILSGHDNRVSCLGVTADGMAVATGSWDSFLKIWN
Sequence of GPR55 mutant G152W (Gα13) (O14610 1-66 partner limits assumed): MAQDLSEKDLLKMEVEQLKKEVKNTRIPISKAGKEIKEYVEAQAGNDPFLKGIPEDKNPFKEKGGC

In the case of `Cc1cccc(N2CCN(C(=O)c3cc(S(=O)(=O)N(C)C)ccc3N3CCCC3)CC2)c1C` [ML184, 3-[[4-(2,3-dimethylphenyl)-1-piperazinyl]carbonyl]-N,N-dimethyl-4-(1-pyrrolidinyl)benzenesulfonamide], the “Mean (plotted) BRET² response, GPR55-G152W-G13” value (“Mean (plotted) BRET² response” for short) is, setting by setting: (Concentration 300 pM) -0.02434; (Concentration 1e-9 M) -0.04124; (Concentration 3e-9 M) -0.05947; (Concentration 1e-8 M) -0.07141; (Concentration 3e-8 M) -0.07973; (Concentration 1e-7 M) -0.08343. The “Mean (plotted) BRET² response” value runs as follows: (Concentration 3e-7 M) -0.08701; (Concentration 1e-6 M) -0.08751; (Concentration 3e-6 M) -0.0887; (Concentration 1e-5 M) -0.09176; (Concentration 3e-5 M) -0.09408. In addition, for the setting “G152W mutant”, the “increase of potency compared to wt GPR55” value is 34 fold. Moreover, where the note is “GPR55 G152W, Gα13, 30 µM ligand, same normalization, read-out: Efficacy ± SEM (%)”, the Emax at 30 µM was 107 ± 1%. The EC50 (GPR55 G152W, Gα13, calculated by extrapolating ΔBRET² ratios for concentrations <0.3 nM) was 1.35 nM.
For `CCCCC[C@H](O)/C=C/[C@@H]1[C@@H](C/C=C\CCCC(=O)O)[C@H]2CO[C@@H]1C2` [U-46619], the “Mean (plotted) BRET² response” value is 0.00225 (Concentration 10 pM); -0.00435 (Concentration 30 pM); -0.00495 (Concentration 100 pM); -0.0004516 (Concentration 300 pM); -0.001887 (Concentration 1e-9 M); 7.154e-5 (Concentration 3e-9 M). Moreover, the “Mean (plotted) BRET² response” value is, setting by setting: (Concentration 1e-8 M) -0.01413; (Concentration 3e-8 M) -6.439e-5; (Concentration 1e-7 M) 0.001032; (Concentration 3e-7 M) 0.002926; (Concentration 1e-6 M) -0.00228; (Concentration 3e-6 M) -0.002139. Moreover, the “Mean (plotted) BRET² response” value (Concentration 1e-5 M) is reported as -0.008827 and the “Mean (plotted) BRET² response” value (Concentration 3e-5 M) is reported as -0.0048.
